Measured values taken from patent US20140194480A1, “METHODS FOR THE CONTROL OF TERMITES AND ANTS” (SYNGENTA PARTICIPATIONS AG, priority 2011, published 2014).

Legend:
[1] = test system: termites; assay: Transfer test: termites exposed 6 h on treated sand, then combined with unexposed termites; total termite mortality; format: in vivo; settings: for % mortality: Table 3; for % mortality of the total termites: Table 4
Experimental: Washed sand is treated with the experimental compound in a volatile solvent, so as to deliver the desired concentration w/w in the solvent free sand. Once the solvent has evaporated, the sand is thoroughly mixed and made up with deionised water to 3% w/w moisture content. Ca. 5 g of the so treated sand is placed in the base of a 9 cm Petri dish. 20 worker termites are placed on the treated sand and placed in a dark room under similar temperature to their culture colony. After 6 hours the termites are assessed for mortality and carefully removed from the treated sand, before being placed in a similar Petri dish of untreated sand (3% moisture content). 20 further termites are taken from the same colony and placed in the Petri dish with the exposed termites, along with a section of filter paper ca. 2 cm^2. The lid of the Petri dish is replaced and sealed with laboratory film. The so constructed Petri dish arena are placed in a dark room with a similar temperature to the culture colony. Assessments of total termite mortality, symptomology and behaviour are made at daily intervals.

[2] = test system: termites; assay: Treated sand column test: termite mortality and distance tunnelled into treated sand; format: in vivo
Experimental: Washed sand was treated with the experimental compound diluted in acetone. The acetone was allowed to evaporate, and the sand thoroughly mixed. De-ionised water was added to the treated sand to give a final water content of 3%. The treated sand was then packed into a glass tube with an internal diameter of 13.2 mm, to produce a 4 cm column. This was held in place at one end with a section of 7% agar. Sections of filter paper were placed at both ends of the column. Approximately 25 mixed age termites were added to the end of the tube containing the agar. Both ends were then sealed with rubber bungs. Assessments were made 1, 2, 3, 7 and 21 days after infestation, measuring termite mortality and the distance tunnelled into the treated sand.

[3] = 2.5 ppm, 0 days after treatment
[4] = 2.5 ppm, 2 days after treatment
[5] = 2.5 ppm, 3 days after treatment
[6] = 2.5 ppm, 6 days after treatment
[7] = 2.5 ppm, 7 days after treatment
[8] = 2.5 ppm, 8 days after treatment
[9] = 2.5 ppm, 9 days after treatment
[10] = 2.5 ppm, 14 days after treatment
[11] = 1.25 ppm, 0 days after treatment
[12] = 1.25 ppm, 1 day after treatment
[13] = 1.25 ppm, 2 days after treatment
[14] = 1.25 ppm, 3 days after treatment
[15] = 1.25 ppm, 6 days after treatment
[16] = 1.25 ppm, 7 days after treatment
[17] = 1.25 ppm, 8 days after treatment
[18] = 1.25 ppm, 9 days after treatment
[19] = 1.25 ppm, 14 days after treatment

## Cc1cc(C2=NOC(c3cc(Cl)cc(Cl)c3)(C(F)(F)F)C2)ccc1C(=O)NC1(C)CSC1 (racemic) [Compound 1]
[1]; 10 ppm, 2 days after application
  % mortality: 0%
[1]; 10 ppm, 3 days after application
  % mortality: 14%
[1]; 10 ppm, 6 days after application
  % mortality: 30%
[1]; 10 ppm, 7 days after application
  % mortality: 38%
[1]; 10 ppm, 8 days after application
  % mortality: 43%
[1]; 10 ppm, 9 days after application
  % mortality: 50%
[1]; 10 ppm, 10 days after application
  % mortality: 67%
[1]; 10 ppm, 13 days after application
  % mortality: 78%
[1]; 10 ppm, 14 days after application
  % mortality: 83%
[1]; 10 ppm, 15 days after application
  % mortality: 87%
[1]; 10 ppm, 16 days after application
  % mortality: 88%
[1]; 10 ppm, 17 days after application
  % mortality: 92%
[1]; [3]
  % mortality of the total termites: 0%
[1]; 2.5 ppm, 1 day after treatment
  % mortality of the total termites: 0%
[1]; [4]
  % mortality of the total termites: 0.5%
[1]; [5]
  % mortality of the total termites: 0.5%
[1]; [6]
  % mortality of the total termites: 0.5%
[1]; [7]
  % mortality of the total termites: 1%
[1]; [8]
  % mortality of the total termites: 1%
[1]; [9]
  % mortality of the total termites: 1.5%
[1]; [10]
  % mortality of the total termites: 1.5%
[1]; 5 ppm, 0 days after treatment
  % mortality of the total termites: 0%
[1]; 5 ppm, 1 day after treatment
  % mortality of the total termites: 0.5%
[1]; 5 ppm, 2 days after treatment
  % mortality of the total termites: 1.5%
[1]; 5 ppm, 3 days after treatment
  % mortality of the total termites: 1.5%
[1]; 5 ppm, 6 days after treatment
  % mortality of the total termites: 1.5%
[1]; 5 ppm, 7 days after treatment
  % mortality of the total termites: 6%
[1]; 5 ppm, 8 days after treatment
  % mortality of the total termites: 6%
[1]; 5 ppm, 9 days after treatment
  % mortality of the total termites: 7%
[1]; 5 ppm, 14 days after treatment
  % mortality of the total termites: 7.5%
[1]; 10 ppm, 0 days after treatment
  % mortality of the total termites: 0%
[1]; 10 ppm, 1 day after treatment
  % mortality of the total termites: 19.5%
[1]; 10 ppm, 2 days after treatment
  % mortality of the total termites: 23.5%
[1]; 10 ppm, 3 days after treatment
  % mortality of the total termites: 27.5%
[1]; 10 ppm, 6 days after treatment
  % mortality of the total termites: 32.5%
[1]; 10 ppm, 7 days after treatment
  % mortality of the total termites: 33.5%
[1]; 10 ppm, 8 days after treatment
  % mortality of the total termites: 35%
[1]; 10 ppm, 9 days after treatment
  % mortality of the total termites: 35.5%
[1]; 10 ppm, 14 days after treatment
  % mortality of the total termites: 37.5%

## Cc1cc(C2=NCC(c3cc(Cl)cc(Cl)c3)(C(F)(F)F)C2)ccc1C(=O)NC1(C)CSC1 (racemic) [Compound 1b]
[1]; [11]
  % mortality of the total termites: 0%
[1]; [12]
  % mortality of the total termites: 1.5%
[1]; [13]
  % mortality of the total termites: 3.5%
[1]; [14]
  % mortality of the total termites: 5.5%
[1]; [15]
  % mortality of the total termites: 6%
[1]; [16]
  % mortality of the total termites: 6%
[1]; [17]
  % mortality of the total termites: 6%
[1]; [18]
  % mortality of the total termites: 6.5%
[1]; [19]
  % mortality of the total termites: 6.5%
[1]; [3]
  % mortality of the total termites: 0%
[1]; 2.5 ppm, 1 day after treatment
  % mortality of the total termites: 10%
[1]; [4]
  % mortality of the total termites: 19%
[1]; [5]
  % mortality of the total termites: 22.5%
[1]; [6]
  % mortality of the total termites: 27%
[1]; [7]
  % mortality of the total termites: 36%
[1]; [8]
  % mortality of the total termites: 36.5%
[1]; [9]
  % mortality of the total termites: 37%
[1]; [10]
  % mortality of the total termites: 38%
[1]; 5 ppm, 0 days after treatment
  % mortality of the total termites: 0%
[1]; 5 ppm, 1 day after treatment
  % mortality of the total termites: 15%
[1]; 5 ppm, 2 days after treatment
  % mortality of the total termites: 33.5%
[1]; 5 ppm, 3 days after treatment
  % mortality of the total termites: 40.5%
[1]; 5 ppm, 6 days after treatment
  % mortality of the total termites: 52.5%
[1]; 5 ppm, 7 days after treatment
  % mortality of the total termites: 59.5%
[1]; 5 ppm, 8 days after treatment
  % mortality of the total termites: 60%
[1]; 5 ppm, 9 days after treatment
  % mortality of the total termites: 61.5%
[1]; 5 ppm, 14 days after treatment
  % mortality of the total termites: 63.5%

## Cc1cc(C2=NOC(c3cc(Cl)cc(Cl)c3)(C(F)(F)F)C2)ccc1C(=O)NC1CSC1 (racemic) [Compound 5]
[1]; [11]
  % mortality of the total termites: 0%
[1]; [12]
  % mortality of the total termites: 3%
[1]; [13]
  % mortality of the total termites: 12%
[1]; [14]
  % mortality of the total termites: 12%
[1]; [15]
  % mortality of the total termites: 20%
[1]; [16]
  % mortality of the total termites: 24%
[1]; [17]
  % mortality of the total termites: 25%
[1]; [18]
  % mortality of the total termites: 26.5%
[1]; [19]
  % mortality of the total termites: 30%
[1]; [3]
  % mortality of the total termites: 0%
[1]; 2.5 ppm, 1 day after treatment
  % mortality of the total termites: 15%
[1]; [4]
  % mortality of the total termites: 31%
[1]; [5]
  % mortality of the total termites: 32%
[1]; [6]
  % mortality of the total termites: 42%
[1]; [7]
  % mortality of the total termites: 46.5%
[1]; [8]
  % mortality of the total termites: 46.5%
[1]; [9]
  % mortality of the total termites: 49.5%
[1]; [10]
  % mortality of the total termites: 56%
[1]; 5 ppm, 0 days after treatment
  % mortality of the total termites: 0%
[1]; 5 ppm, 1 day after treatment
  % mortality of the total termites: 20.5%
[1]; 5 ppm, 2 days after treatment
  % mortality of the total termites: 42%
[1]; 5 ppm, 3 days after treatment
  % mortality of the total termites: 44%
[1]; 5 ppm, 6 days after treatment
  % mortality of the total termites: 52.5%
[1]; 5 ppm, 7 days after treatment
  % mortality of the total termites: 54.5%
[1]; 5 ppm, 8 days after treatment
  % mortality of the total termites: 56.5%
[1]; 5 ppm, 9 days after treatment
  % mortality of the total termites: 56.5%
[1]; 5 ppm, 14 days after treatment
  % mortality of the total termites: 65.5%

## N#Cc1nn(-c2c(Cl)cc(C(F)(F)F)cc2Cl)c(N)c1[S+]([O-])C(F)(F)F (stereo not drawn) [Fipronil]
[2]; Table 1, 0.01 ppm in sand, 1 DAA
  Mortality/average %: 7%
[2]; Table 1, 0.01 ppm in sand, 2 DAA
  Mortality/average %: 7%
[2]; Table 1, 0.01 ppm in sand, 3 DAA
  Mortality/average %: 7%
[2]; Table 1, 0.01 ppm in sand, 7 DAA
  Mortality/average %: 7%
[2]; Table 1, 0.01 ppm in sand, 21 DAA
  Mortality/average %: 52%
[2]; Table 1, 0.1 ppm in sand, 1 DAA
  Mortality/average %: 0%
[2]; Table 1, 0.1 ppm in sand, 2 DAA
  Mortality/average %: 28%
[2]; Table 1, 0.1 ppm in sand, 3 DAA
  Mortality/average %: 33%
[2]; Table 1, 0.1 ppm in sand, 7 DAA
  Mortality/average %: 77%
[2]; Table 1, 0.1 ppm in sand, 21 DAA
  Mortality/average %: 100%
[2]; Table 2, 0.01 ppm in sand, 1 DAA
  Mortality/average %: 27%
[2]; Table 2, 0.01 ppm in sand, 2 DAA
  Mortality/average %: 40%
[2]; Table 2, 0.01 ppm in sand, 3 DAA
  Mortality/average %: 40%
[2]; Table 2, 0.01 ppm in sand, 7 DAA
  Mortality/average %: 40%
[2]; Table 2, 0.01 ppm in sand, 21 DAA
  Mortality/average %: 40%
[2]; Table 2, 0.1 ppm in sand, 1 DAA
  Mortality/average %: 27%
[2]; Table 2, 0.1 ppm in sand, 2 DAA
  Mortality/average %: 30%
[2]; Table 2, 0.1 ppm in sand, 3 DAA
  Mortality/average %: 40%
[2]; Table 2, 0.1 ppm in sand, 7 DAA
  Mortality/average %: 40%
[2]; Table 2, 0.1 ppm in sand, 21 DAA
  Mortality/average %: 40%
[2]; fipronil rates tested (0.1 and 0.01 ppm)
  repellency (in words): not repellent
